The results in this text go back to US20180311357A1, “EXTERNAL PREPARATION AND METHOD FOR PRODUCING SAME” (SEKISUI CHEMICAL CO., LTD., priority 2015, published 2018).

The conditions of the series: pH 7. As to the method: In the present invention, the octanol/water partition coefficient is obtained as follows. After the chemical is added into a flask containing octanol and an aqueous buffer at pH 7, the mixture is shaken. Based on the chemical concentration in each phase, the octanol/water partition coefficient is calculated by the following equation. Octanol/water partition coefficient=Log 10(concentration in octanol phase/concentration in aqueous phase)

The structures appear in SMILES notation.

Compound `O.O.O.O.O.O=P([O-])(O)C(O)(Cc1cccnc1)P(=O)(O)O.O=P([O-])(O)C(O)(Cc1cccnc1)P(=O)(O)O.[Na+].[Na+]` [hemipenta hydrate risedronate monosodium] showed an octanol/water partition coefficient of −5.0.
